Experimental data published in ChEMBL document CHEMBL5233249, “Recent advancements in the development of heterocyclic anti-inflammatory agents” (Eur J Med Chem, 2020).
Values belong to the molecule of their own block, whether it stands above or below them.

What was measured:
[1] = tested on: Mus musculus; experiment: Anti-inflammatory activity in Carrageenan-induced paw edema mouse model assessed as inhibition of granuloma measured after 24 hrs relative to control; format: functional
[2] = tested on: Rattus norvegicus; experiment: Ulcerogenic activity in Swiss albino Wistar rat assessed as ulcer lesion score at 100 mg/kg, po; format: functional
[3] = tested on: Mus musculus; experiment: Analgesic activity in PO dosed Swiss albino mouse assessed as protection of paw edema measured after 2 hrs at 20 mg/kg relative to control; format: functional
[4] = tested on: Rattus norvegicus; experiment: Anti-inflammatory activity against formalin-induced foot paw edema in PO dosed rat at 10 mg/kg assessed as inhibition of edema measured after 1 hr relative to control; format: functional; design: scale not given: the % may be the effect or the level left
[5] = tested on: Rattus norvegicus; experiment: Anti-inflammatory activity against formalin-induced foot paw edema in Wistar rat at 5 mg/kg, po assessed as inhibition of edema measured after 4 hr relative to control; format: functional
[6] = tested on: Rattus norvegicus; experiment: Anti-inflammatory activity in Carrageenan-induced paw edema in PO dosed rat model at 10 mg/kg assessed as inhibition of paw edema measured after 4 hrs relative to control; format: functional
[7] = tested on: Rattus norvegicus; experiment: Anti-inflammatory activity in Carrageenan-induced paw edema in PO dosed rat model at 20 mg/kg assessed as inhibition of paw edema measured after 4 hrs relative to control; format: functional
[8] = tested on: Mus musculus; experiment: Anti-inflammatory activity against Carrageenan-induced paw edema in mouse model assessed as inhibition of edema at 100 mg/kg measured after 4 hrs relative to control; format: functional; design: scale not given: the % may be the effect or the level left
[9] = Inhibition of MAPK p38 (unknown origin); design: species or system Homo sapiens
[10] = tested on: Rattus norvegicus; experiment: Anti-inflammatory activity in Carrageenan-induced rat paw edema in Wistar rat assessed as reduction in inhibition of edema measured after 4 hrs relative to control; format: functional; design: scale not given: the % may be the effect or the level left
[11] = Anti-inflammatory activity assessed as protein denaturation using bovine serum albumin relative to control; format: functional
[12] = tested on: Mus musculus; experiment: Anti-inflammatory activity in Carrageenan-induced paw edema in PO dosed mouse at 100 mg/kg assessed as inhibition of edema measured after 3 hr relative to control; format: functional; design: scale not given: the % may be the effect or the level left
[13] = target: Prostaglandin G/H synthase 1 (Homo sapiens, UniProt P23219); experiment: Inhibition of COX-1 (unknown origin) at 40 uM relative to control
Sequence of Prostaglandin G/H synthase 1 (Homo sapiens, UniProt P23219) (P23219 whole entry): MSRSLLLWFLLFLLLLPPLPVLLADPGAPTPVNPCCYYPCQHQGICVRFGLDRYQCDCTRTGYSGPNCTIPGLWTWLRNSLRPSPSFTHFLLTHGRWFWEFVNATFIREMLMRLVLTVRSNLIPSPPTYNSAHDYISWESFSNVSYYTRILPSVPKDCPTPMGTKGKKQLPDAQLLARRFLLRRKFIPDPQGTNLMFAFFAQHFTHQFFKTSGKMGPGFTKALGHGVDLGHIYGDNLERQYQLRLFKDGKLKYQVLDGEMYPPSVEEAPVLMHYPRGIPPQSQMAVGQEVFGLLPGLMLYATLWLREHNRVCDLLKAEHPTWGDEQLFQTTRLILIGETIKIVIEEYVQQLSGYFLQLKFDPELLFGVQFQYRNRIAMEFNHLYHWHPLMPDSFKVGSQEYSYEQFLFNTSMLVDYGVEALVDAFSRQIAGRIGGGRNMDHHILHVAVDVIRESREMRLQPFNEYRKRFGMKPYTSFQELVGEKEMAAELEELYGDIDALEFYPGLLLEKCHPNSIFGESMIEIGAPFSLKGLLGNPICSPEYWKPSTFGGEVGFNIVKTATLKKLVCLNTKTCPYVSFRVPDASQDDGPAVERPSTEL

[14] = target: T1, Prostaglandin G/H synthase 1 (Ovis aries, UniProt P05979); experiment: Inhibition of ovine COX-1 by EIA method
T1 sequence (P05979 whole entry): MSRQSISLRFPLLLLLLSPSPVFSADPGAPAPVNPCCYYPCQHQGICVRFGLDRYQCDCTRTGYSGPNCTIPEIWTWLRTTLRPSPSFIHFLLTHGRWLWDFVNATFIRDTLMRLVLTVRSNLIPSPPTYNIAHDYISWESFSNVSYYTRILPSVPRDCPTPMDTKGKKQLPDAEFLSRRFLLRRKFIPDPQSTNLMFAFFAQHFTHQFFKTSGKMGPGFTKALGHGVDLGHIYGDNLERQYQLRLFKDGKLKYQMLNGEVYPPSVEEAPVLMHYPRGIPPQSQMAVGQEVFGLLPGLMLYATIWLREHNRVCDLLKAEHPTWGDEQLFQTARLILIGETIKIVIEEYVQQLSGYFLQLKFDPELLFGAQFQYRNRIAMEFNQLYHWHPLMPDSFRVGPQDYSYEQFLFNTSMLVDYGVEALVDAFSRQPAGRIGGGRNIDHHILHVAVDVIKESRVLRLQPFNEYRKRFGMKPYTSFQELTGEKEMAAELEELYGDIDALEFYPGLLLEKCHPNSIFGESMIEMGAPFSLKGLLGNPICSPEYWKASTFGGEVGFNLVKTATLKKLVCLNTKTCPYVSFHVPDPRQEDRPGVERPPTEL

[15] = tested on: Rattus norvegicus; experiment: Anti-inflammatory activity in Carageenan-induced foot paw edema in Sprague-Dawley rat at 50 mg/kg assessed as reduction in paw edema volume relative to control; format: functional; design: scale not given: the % may be the effect or the level left
[16] = tested on: Rattus norvegicus; experiment: Anti-inflammatory activity in Carrageenan-induced paw edema in Wistar albino rat assessed as inhibition of edema measured after 3 hrs relative to control; format: functional
[17] = Selectivity index, ratio of IC50 for ovine COX1 to IC50 for recombinant human COX2
[18] = tested on: Rattus norvegicus; experiment: Anti-ulcerative activity in aspirin induced Wistar rat ulcer model assessed as inhibition of ulcer index at 20 mg/kg,po; format: functional
[19] = tested on: Rattus norvegicus; experiment: Anti-inflammatory activity in Carrageenan-induced rat paw edema in Wistar rat assessed as increase in paw edema volume at 1 hr; format: functional
[20] = tested on: Rattus norvegicus; experiment: Anti-inflammatory activity in Carrageenan-induced paw edema in Swiss albino rat assessed as inhibition relative to control; format: functional
[21] = tested on: Rattus norvegicus; experiment: Anti-inflammatory activity in Carrageenan-induced rat paw edema in Wistar rat assessed as increase in paw edema volume relative to control; format: functional
[22] = tested on: Rattus norvegicus; experiment: Anti-inflammatory activity in Carrageenan-induced rat paw edema in Wistar rat assessed as increase in paw edema volume at 2 hr; format: functional
[23] = tested on: Rattus norvegicus; experiment: Anti-inflammatory activity in Carrageenan-induced rat paw edema in Wistar rat assessed as increase in paw edema volume at 2 hr relative to control; format: functional
[24] = tested on: Rattus norvegicus; experiment: Anti-inflammatory activity in Carrageenan-induced rat paw edema in Wistar rat assessed as increase in paw edema volume at 4 hr relative to control; format: functional
[25] = tested on: Rattus norvegicus; experiment: Anti-inflammatory activity in Carrageenan-induced paw edema in Wistar rat assessed as inhibition of paw edema; format: functional
[26] = tested on: Rattus norvegicus; experiment: Anti-inflammatory activity in Carrageenan-induced rat paw edema in Wistar rat assessed as increase in paw edema volume (reference value: 1.66 +/- 0.01); format: functional
[27] = tested on: Rattus norvegicus; experiment: Anti-inflammatory activity in Carrageenan-induced rat paw edema in Wistar rat assessed as increase in paw edema volume at 4 hr; format: functional
[28] = tested on: Rattus norvegicus; experiment: Anti-inflammatory activity in Carrageenan-induced rat paw edema in Wistar rat assessed as increase in paw edema volume at 1 hr relative to control; format: functional
[29] = tested on: Mus musculus; experiment: Anti-inflammatory activity in Carrageenan-induced paw edema in […] mouse model assessed as inhibition of edema at 200 mg/kg, po relative to control; format: functional; design: scale not given: the % may be the effect or the level left
[30] = target: T2, Polyunsaturated fatty acid 5-lipoxygenase (Homo sapiens, UniProt P09917); experiment: Inhibition of 5-LOX (unknown origin) after 5 mins by colorimetric method
T2 sequence (P09917 whole entry): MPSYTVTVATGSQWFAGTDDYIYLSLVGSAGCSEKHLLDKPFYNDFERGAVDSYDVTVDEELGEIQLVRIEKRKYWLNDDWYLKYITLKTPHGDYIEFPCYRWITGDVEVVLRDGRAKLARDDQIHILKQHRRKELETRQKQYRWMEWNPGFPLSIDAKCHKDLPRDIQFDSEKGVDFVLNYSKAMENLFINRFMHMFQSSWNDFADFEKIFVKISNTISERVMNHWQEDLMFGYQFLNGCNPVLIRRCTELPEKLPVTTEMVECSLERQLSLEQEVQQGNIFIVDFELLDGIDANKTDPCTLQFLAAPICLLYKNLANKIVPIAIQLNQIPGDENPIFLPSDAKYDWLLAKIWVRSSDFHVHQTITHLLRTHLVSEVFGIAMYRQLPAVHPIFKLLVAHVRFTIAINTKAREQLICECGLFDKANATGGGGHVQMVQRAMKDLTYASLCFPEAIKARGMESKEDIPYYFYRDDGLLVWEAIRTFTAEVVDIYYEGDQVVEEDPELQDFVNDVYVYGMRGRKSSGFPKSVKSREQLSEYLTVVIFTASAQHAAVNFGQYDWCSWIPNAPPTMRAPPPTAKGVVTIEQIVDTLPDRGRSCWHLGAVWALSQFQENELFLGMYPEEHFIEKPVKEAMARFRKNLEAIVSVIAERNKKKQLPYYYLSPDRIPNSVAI

[31] = tested on: Rattus norvegicus; experiment: Anti-inflammatory activity in Carrageenan-induced paw edema in Wistar albino rat assessed as inhibition of edema measured after 5 hr relative to control; format: functional; design: scale not given: the % may be the effect or the level left
[32] = tested on: Rattus norvegicus; experiment: Anti-inflammatory activity in Carrageenan-induced paw edema in Wistar albino rat assessed as inhibition of edema measured after 1 hr relative to control; format: functional; design: scale not given: the % may be the effect or the level left
[33] = target: T3, Prostaglandin G/H synthase 2 (Homo sapiens, UniProt P35354); experiment: Inhibition of human COX-2 assessed as by fluorescence based microplate reader assay
T3 sequence (P35354 whole entry): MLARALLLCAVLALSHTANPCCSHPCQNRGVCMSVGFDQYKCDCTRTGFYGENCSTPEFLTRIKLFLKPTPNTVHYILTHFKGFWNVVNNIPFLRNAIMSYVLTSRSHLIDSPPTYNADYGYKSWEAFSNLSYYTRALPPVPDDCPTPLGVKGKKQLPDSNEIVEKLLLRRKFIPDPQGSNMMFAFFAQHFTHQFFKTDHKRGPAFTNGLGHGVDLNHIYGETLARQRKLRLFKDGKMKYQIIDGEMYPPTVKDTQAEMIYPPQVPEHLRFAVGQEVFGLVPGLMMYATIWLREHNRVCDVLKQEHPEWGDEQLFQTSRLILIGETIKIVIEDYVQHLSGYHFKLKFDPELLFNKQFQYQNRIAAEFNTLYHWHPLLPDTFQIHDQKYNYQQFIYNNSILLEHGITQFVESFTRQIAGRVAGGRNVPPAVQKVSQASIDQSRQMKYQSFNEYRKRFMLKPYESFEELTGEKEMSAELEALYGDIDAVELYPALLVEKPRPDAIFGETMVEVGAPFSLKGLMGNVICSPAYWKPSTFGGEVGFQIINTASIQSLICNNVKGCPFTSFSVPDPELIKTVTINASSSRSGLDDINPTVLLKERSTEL

[34] = tested on: Rattus norvegicus; experiment: Anti-inflammatory activity in Carrageenan-induced paw edema in Wistar albino rat assessed as inhibition of edema measured after 3 hr relative to control; format: functional; design: scale not given: the % may be the effect or the level left

Compound: O=C(O)Cc1ccccc1Nc1c(Cl)cccc1Cl [DICLOFENAC]
inhibition (INH) [1]: 36.1%
Activity [2]: 32.5 mm
Activity [3]: 65%
Activity [4]: 30.43%
inhibition in vivo at 5 mg/kg [5]: 50%

Compound: Cc1nn(-c2ccccc2)c2c1C(c1ccccc1Cl)N1C=CC=NC1=N2 (stereo not drawn)
inhibition in vivo at 10 mg/kg [6]: 73%
inhibition in vivo at 20 mg/kg [7]: 86%

Compound: O=C(NCn1c(CCl)nc2ccccc21)c1ccc(Cl)cc1
Activity [8]: 66.66%
Activity [2]: 12.25 mm

IC50 [9]: 0.038 µM
Compound: COc1ccc(NC(=O)c2ccc(Nc3ncnc4c3cnn4-c3ccccc3)cc2)cc1
Activity [10]: 76.35%
Activity [11]: 80.2%

IC50 [13]: 2.5 µM
Compound: COc1ccc(NCc2nc3ccccc3n2C(=O)c2ccccc2)cc1
Activity [12]: 40.3%

IC50 [14]: 0.075 µM
Compound: O=C(NNC(=S)NCc1ccccc1)c1ccc(C2=CN3c4ccccc4NC3S2)nc1 (stereo not drawn)
Activity [15]: 75.9%

Selectivity Index [17]: 65.7
Compound: CCc1c(-c2ccccc2)n(C(=O)c2ccc(F)cc2)c2ccc(S(C)(=O)=O)cc12
inhibition (INH) [16]: 90.5%
UI [18]: 7.3

IC50 [14]: 19.5 µM
inhibition [13]: 86%
Compound: CCCOC(=O)c1nc2c(cnn2-c2ccccc2)c(=O)[nH]1
Activity [19]: 1.66 mL
inhibition (INH) [20]: 36%
inhibition (INH) [21]: 40%
Activity [22]: 1.8 mL
inhibition (INH) [23]: 51%
inhibition (INH) [24]: 55%
ED50 [25]: 8.3 mg/kg
Activity [26]: 0.9 mL
Activity [27]: 2.11 mL
inhibition (INH) [28]: 40%

IC50 [30]: 1.92 µM
Compound: Cc1ccc(N/N=C2\C(=N)N(c3ccc(S(N)(=O)=O)cc3)N=C2N)cc1
Activity [29]: 15%

IC50 [14]: 123 µM
IC50 [33]: 0.1 µM
Compound: CSc1nn(-c2ccc(S(C)(=O)=O)cc2)c2ncnc(NCC(=O)/N=C/c3ccco3)c12
Activity [31]: 88%
Activity [32]: 2%
Activity [34]: 79%
